Experimental findings from patent US20020049161A1, “Pharmaceutical combination preparations containing erythropoietin and iron preparations” (Roche Diagnostics GmbH, priority 1995, published 2002) are described below.

Test [1] concerns hemodialysis patients. Kind of test: Iron status and safety diagnostic parameters in hemodialysis patients under rhEPO/iron therapy. Format: in vivo, human. As for the experimental part: When conducting the combination therapy using the combination preparation according to the invention, the maximum weekly dosage can be concluded in a quite simple fashion by determining the diagnostic parameters for the iron status, particularly the iron, transferrin, transferrin saturation and ferritin parameters.
Preferably, the ferritin concentration is at least 125 μg/l, particularly at least 150 μg/l, and up to 270 μg/l at maximum, especially up to 250 μg/l at maximum. Advantageously, the iron concentration is between 10-20 μmol/l (corresponding to about 56-112 μg/dl) and the transferrin concentration between […] (corresponding to about 240-480 mg/dl) The transferrin saturation is defined as the ratio of serum/plasma iron concentration to serum/plasma transferrin concentration (multiplied by a correction factor of 1.41). It is a non-dimensional figure not depending on the patient's hydration condition. The transferrin saturation is calculated according to the formula: […]
In order to safely exclude undesirable side effects, the acute phase parameter CRP (5 mg/l±100%) [CRP=C reactive protein) is measured, with CRP currently being regarded as the best protein marker of inflammatory reactions. In addition, the liver parameters GPT (glutamate pyruvate transaminase), GOT (glutamate oxalic acetate transaminase) and γ-GT (γ-glutamyltransferase) may be determined, which should fall within the following ranges: (determination at 37° C.): GPT: <50 U/l; GOT: <50 U/l; γ-GT: <40 U/l, with the GPT parameter currently ranking first in liver diagnostics.
The determination of the iron status is effected by analyzing samples of body fluids (blood, serum, urine, etc.) from the patients in question. For the determination of the iron status, particularly the concentrations of iron, transferrin, ferritin, transferrin receptor, the transferrin saturation, and the transferrin/ferritin saturation are determined. With hemodialysis patients, the iron, transferrin, ferritin and transferrin saturation parameters are preferably determined according to per se common analytical methods. […]

For test [2], the system named is anemia patients. Kind of test: Iron status and safety diagnostic parameters in anemia patients under rhEPO/iron therapy. Format: in vivo, human. On the procedure: When conducting the combination therapy using the combination preparation of the invention to treat anemia, the weekly maximum dosage can be concluded in a quite simple fashion by determining the diagnostic parameters transferrin receptor (TfR), ferritin and the ratio of TfR to ferritin.
Advantageously, the TfR concentration is between 1500-2500 μg/l. The concentration ratio of TfR (in μg/l) to ferritin (in μg/l) is particularly in the range of 15-35, preferably at values above 20.
In order to safely exclude undesirable side effects, the acute phase parameter CRP (2-10 mg/l) [CRP=C-reactive protein) is measured. In addition, the liver parameter GPT (glutamate pyruvate transaminase) may be determined, which should be <50 U/l at 37° C. (<30 U/l at 25° C.). Furthermore, the hematological control parameters such as hematocrit (fraction of red blood cells in total volume) or the increase in hypochromic erythrocytes may optionally be utilized, wherein the reticulocytes may increase to a value of up to 15/1000-30/1000. The typical hemoglobin concentration is about 12-18 g/dl.
The determination of the iron status is effected by analyzing samples of body fluids (blood, serum, urine, etc.) from the patients in question. For the determination of the iron status, particularly the concentrations of iron, transferrin, ferritin, transferrin receptor, the transferrin saturation, and the transferrin/ferritin saturation are determined. With hemodialysis patients, the iron, transferrin, ferritin and transferrin saturation parameters are preferably determined according to per se common analytical methods. In particular, the determination of the transferrin/ferritin saturation value is relevant. In the case of anemia patients whose anemia has not been caused by hemodialysis, the ferritin concentration and the concentration of transferrin receptor are determined above all. In particular, the determination of the ratio of transferrin receptor to ferritin (transferrin receptor/ferritin saturation value) is relevant.
In addition, the serum ferritin level is determined. Ferritin is an iron-storing glycoprotein of which tissue-typical isoferritins are existing and which can be determined in the serum by immunological means, e.g., by a radioimmunoassay (RIA) or by turbidimetric methods as well. The ferritin value is a measure for iron storage in the tissue. In most of the laboratories, the normal range is between 30 and 300 ng/ml, and the geometrical mean value is 88 in males and 49 in females. The serum ferritin values are in close relationship to the total iron reserve of the body. Therefore, decreased serum ferritin levels are found only in case of iron deficiency. Increased levels are found in case of iron overloading. Likewise, increased serum ferritin levels are found in case of liver lesions or in association with some types of neoplasia, where ferritins may be bound to acute phase proteins. Similarly, the serum transferrin receptor may be determined using an enzyme-enhanced immune absorption test (enzyme-linked immunosorbent assay=ELISA), wherein a monoclonal antibody against the soluble receptor is used. The reference range is between 0.5-3 mg/l. The level is increased in case of slight deficiency in the iron depots. The concentrations of specific erythrocyte ferritins may be determined in order to characterize the iron depots, particularly if the serum ferritin cannot be utilized in case of tissue lesions or due to acute phase reactions.

[3] abbreviates: Patient B (hemodialysis), 5,000 U rhEPO three times a week over 3 weeks.
The mark [4] stands for this setting: Patient E (anemia), 5,000 U rhEPO three times a week over 3 weeks.
Where [5] appears, read: Patient F (anemia), iron infusions omitted, within 3 weeks.

For “recombinant human erythropoietin [rhEPO]”, in test [1] (setting [3]), the “ferritin value decreased to” value was less than 500 µg/L and the “transferrin saturation decreased to” value is recorded as less than 25%. The “ferritin values lowered to” value in test [1] (Patient C (hemodialysis), iron infusions omitted, within 3 weeks) is 500 µg/L. For the same substance, in test [2] (setting [4]), the “ferritin value decreased to” value is less than 500 µg/L, the “transferrin receptor value increased to” value is “above 1500 μg/l” and the “transferrin saturation decreased to” value is less than 25%. Moreover, in test [2] (setting [5]), the “ferritin values lowered to” value is less than 500 µg/L and the “transferrin receptor values increased to” value is reported as “above 1500 μg/l”.
